{
  "source": "patent US11219209B2",
  "about": "“Method of reducing crop damage” (Bayer Aktiengesellschaft, priority 2018, dated 2022)",
  "format_in_all_cases": "in vivo",
  "key": {"winter wheat, TRZAW [1]": {"tested_on": "winter wheat, TRZAW", "test": "Method A: safener seed treatment, herbicide post-emergence, greenhouse crop damage test", "conditions": "safener seed treatment 0.5 g/kg only, no herbicide", "protocol": "(§1) For the safener seed treatment, sufficient seeds were weighed into screw top glass bottles approximately twice the volume of the seeds.\n(§2) The safener (mefenpyr-diethyl, formulated as suspension concentrate (SC)) was weighed out so that the required rates (g a.i./kg seed) would be obtained, dissolved in water (1 ml water per 10 g of seeds), and added to the seeds to produce a slurry.\n(§3) The bottles were capped and then placed in an overhead shaker (set at medium speed for up to 1 hour) so that the seeds were evenly coated with the slurry. The bottles were uncapped and the seeds were sown as described above.\n(§4) For the seed treatment process, the blind formulation (the SC formulation without the safener mefenpyr-diethyl) was used as seed treatment as described above.\nPost-emergence application of the herbicide was done when the plants had reached growth stage BBCH11.\n(§5) After application, the test plants were kept in the greenhouse under good growth conditions.\n(§6) Values in the table below are mean values from at least 3 replicates."}, "winter wheat, TRZAW [2]": {"tested_on": "winter wheat, TRZAW", "test": "Method C: safener seed treatment, herbicide and safener tank mix post-emergence, greenhouse crop damage test", "conditions": "no herbicide", "protocol": "as §1, §2, §3, §4\nPost-emergence application was done when the plants had reached growth stage BBCH11.\nThe safener (mefenpyr-diethyl) was formulated as wettable powder (WP).\nThe compounds were sprayed onto the green parts of the plants as an aqueous suspension at an equivalent water application rate of 300 l/ha.\n(§7) The combination of herbicide and safener was applied as a tank mix.\nas §5, §6"}, "winter wheat, TRZAW [3]": {"tested_on": "winter wheat, TRZAW", "test": "Method D: safener seed treatment, herbicide and safener tank mix pre-emergence, greenhouse crop damage test", "conditions": "no herbicide", "protocol": "as §1, §2, §3, §4\nThe compounds were sprayed to the soil surface as an aqueous suspension at an equivalent water application rate of 300 l/ha.\nas §7, §5, §6"}, "[4]": {"conditions": "safener seed treatment 0.5 g/kg only"}},
  "data": [
    {"smiles": "CCOC(=O)C1=NN(c2ccc(Cl)cc2Cl)C(C)(C(=O)OCC)C1", "note": "(centres unmarked) [Safener seed treatment, ethyl 1-(2,4-dichlorophenyl)-5-(ethoxycarbonyl)-5-methyl-2-pyrazoline-3-carboxylate]", "values": [
      {"measurement": "% crop damage", "setting": "winter wheat, TRZAW [1]", "value": 0, "unit": "%"},
      {"measurement": "% crop damage", "setting": "winter wheat, TRZAW [2]; safener 200 g/ha in tank mix only, post-emergence, 14 days after application", "value": 5, "unit": "%"},
      {"measurement": "% crop damage", "setting": "winter wheat, TRZAW [2]; [4]", "value": 0, "unit": "%"},
      {"measurement": "% crop damage", "setting": "winter wheat, TRZAW [3]; safener 200 g/ha in tank mix only, pre-emergence, 14 days after application", "value": 5, "unit": "%"},
      {"measurement": "% crop damage", "setting": "winter wheat, TRZAW [3]; [4]", "value": 2, "unit": "%"}
    ]}
  ]
}
